The values that follow come from ChEMBL document CHEMBL4229332, “Novel multi-target azinesulfonamides of cyclic amine derivatives as potential antipsychotics with pro-social and pro-cognitive effects” (Eur J Med Chem, 2018).

In data set [1] the target is D(3) dopamine receptor (Homo sapiens) (UniProt P35462). In words: Displacement of [3H]-methyl-spiperone from human dopamine D3 receptor expressed in CHO cells at 10^-6 M after 60 mins by scintillation counting method relative to control. Format: cell-based. Background: Displacement assays read how much labelled ligand stays bound in the presence of the test substance.

Data set [2] concerns the target T1, 5-hydroxytryptamine receptor 1A (Homo sapiens) (UniProt P08908).
T1 sequence (whole entry): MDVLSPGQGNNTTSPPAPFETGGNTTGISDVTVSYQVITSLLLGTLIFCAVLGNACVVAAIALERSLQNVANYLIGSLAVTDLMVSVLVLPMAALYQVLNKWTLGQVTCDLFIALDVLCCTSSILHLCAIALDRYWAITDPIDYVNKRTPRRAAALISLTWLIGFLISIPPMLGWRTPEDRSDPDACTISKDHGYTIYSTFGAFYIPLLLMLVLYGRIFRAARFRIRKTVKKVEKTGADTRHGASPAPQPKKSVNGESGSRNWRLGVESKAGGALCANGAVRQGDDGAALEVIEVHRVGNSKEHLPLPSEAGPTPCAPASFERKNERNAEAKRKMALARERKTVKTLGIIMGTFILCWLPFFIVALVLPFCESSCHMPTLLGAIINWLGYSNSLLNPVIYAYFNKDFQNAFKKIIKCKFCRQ
The data set is described as follows: Partial agonist activity at human 5-HT1AR expressed in CHO-K1 cells assessed as increase in calcium flux by fluorimetric method. Format: functional, cell-based. (In general: A change in cytosolic calcium serves as a functional read-out for many receptors and channels.)

Data set [3] concerns the target T2, 5-hydroxytryptamine receptor 6 (Homo sapiens, UniProt P50406). The data set is described as follows: Displacement of [3H]LSD from human recombinant 5-HT6 receptor at 10^-6 M after 120 mins by scintillation counting analysis relative to control.
Data set [4] deals with 5-hydroxytryptamine receptor 2B (Homo sapiens) (UniProt P41595). The data set is described as follows: Displacement of [3H]mesulergine from human 5-HT2B receptor expressed in CHO cells at 10^-6 M after 60 mins by scintillation counting analysis relative to control. In kind it is cell-based.
The target in data set [5] is D(2) dopamine receptor (Homo sapiens) (UniProt P14416). In words: Displacement of [3H]7-OH-DPAT from human recombinant dopamine D2S receptor expressed in CHO cells at 10^-6 M after 60 mins by scintillation counting analysis relative to control. Format: cell-based.
Data set [6] concerns the target T1, 5-hydroxytryptamine receptor 1A (Homo sapiens). In words: Antagonist activity at human 5-HT1AR expressed in CHO-K1 cells assessed as inhibition of serotonin-induced cAMP accumulation by chemiluminescence-based assay. Format: functional, cell-based.
For data set [7], the target named is T3, 5-hydroxytryptamine receptor 7 (Homo sapiens, UniProt P34969). In words: Antagonist activity at human 5-HT7R expressed in human DLD1 cells assessed as inhibition of serotonin-induced cAMP accumulation at 10^-6 M by chemiluminescence-based assay. In kind it is functional, cell-based. On the technique in general: Cyclic AMP is a second messenger, typically raised through Gs and lowered through Gi signalling.

The subject of data set [8] is Rattus norvegicus. The data set is described as follows: Toxicity in Sprague-Dawley rat assessed as induction of catalepsy at 30 mg/kg, ip measured every 30 mins up to 240 mins by bar test. Format: organism-based. To be noted: in vivo.
In data set [9] the target is T4, 5-hydroxytryptamine receptor 2A (Homo sapiens, UniProt P28223). The data set is described as follows: Displacement of [3H]ketanserin from human recombinant 5-HT2A receptor after 60 mins by scintillation counting analysis.
Data set [10] concerns the target Sodium-dependent dopamine transporter (Homo sapiens) (UniProt Q01959). In words: Displacement of [3H]-BTCP from human DAT expressed in CHO cells at 10^-6 M after 120 mins by scintillation counting method relative to control. Format: cell-based.
Data set [11] concerns the target T5, 5-hydroxytryptamine receptor 1A (Homo sapiens, UniProt P08908).
T5 sequence (P08908 whole entry): T1 sequence (whole entry)
In words: Partial agonist activity at human 5-HT1AR expressed in CHO-K1 cells assessed as increase in cAMP accumulation by chemiluminescence-based assay. Format: functional, cell-based.

In data set [12] the target is Muscarinic acetylcholine receptor M1 (Homo sapiens) (UniProt P11229). In words: Displacement of [3H]-pirenzepine from human muscarinic acetylcholine M1 receptor expressed in CHO cells at 10^-6 M after 60 mins by scintillation counting method relative to control. In kind it is cell-based.
For data set [13], the target named is Sodium-dependent serotonin transporter (Homo sapiens, UniProt P31645). In words: Displacement of [3H]-imipramine from human SERT expressed in CHO cells at 10^-6 M after 60 mins by scintillation counting method relative to control. In kind it is cell-based.
Data set [14] deals with 5-hydroxytryptamine receptor 3A (Homo sapiens) (UniProt P46098). The data set is described as follows: Displacement of [3H]BRL 43694 from human 5-HT3 receptor expressed in CHO cells at 10^-6 M after 120 mins by scintillation counting analysis relative to control. In kind it is cell-based.
Data set [15] has as its target 5-hydroxytryptamine receptor 2C (Homo sapiens) (UniProt P28335). The data set is described as follows: Antagonist activity at human 5-HT2CR expressed in HEK293 cells assessed as inhibition of serotonin-induced IP1 accumulation after 30 mins by HTRF method. In kind it is functional, cell-based.
Data set [16] shares this target. The data set is described as follows: Displacement of [3H]mesulergine from human 5-HT2C receptor expressed in CHO cells at 10^-6 M after 120 mins by scintillation counting analysis relative to control. Format: cell-based.
Data set [17] concerns the target T1, 5-hydroxytryptamine receptor 1A (Homo sapiens). In words: Antagonist activity at human 5-HT1AR expressed in CHO-K1 cells assessed as inhibition of serotonin-induced cAMP accumulation at 10^-6 M by chemiluminescence-based assay. Format: functional, cell-based.
Data set [18] can be described thus: Tmax in Wistar rat plasma at 9 mg/kg per os administered as a single dose by LC-MS/MS analysis. To be noted: po. Format: ADME, organism-based.
Data set [19] concerns the target D(2) dopamine receptor (Homo sapiens) (UniProt P14416). In words: Antagonist activity at human D2LR expressed in CHO-K1 cells assessed as inhibition of dopamine-induced cAMP accumulation by chemiluminescence-based assay. Format: functional, cell-based.
The target of data set [20] is Histamine H1 receptor (Homo sapiens) (UniProt P35367). The data set is described as follows: Displacement of [3H]-pyrilamine from human histamine H1 receptor expressed in HEK293 cells at 10^-6 M after 60 mins by scintillation counting method relative to control. In kind it is cell-based.
In data set [21] the target is D(1A) dopamine receptor (Homo sapiens) (UniProt P21728). In words: Displacement of [3H]-SCH 23390 from human dopamine D1 receptor expressed in CHO cells at 10^-6 M after 60 mins by scintillation counting method relative to control. Format: cell-based.
For data set [22], the target named is T4, 5-hydroxytryptamine receptor 2A. The data set is described as follows: Antagonist activity at human 5-HT2AR expressed in HEK293 cells assessed as inhibition of serotonin-induced IP1 accumulation after 60 mins by HTRF method. In kind it is functional, cell-based.
The target of data set [23] is T3, 5-hydroxytryptamine receptor 7. In words: Displacement of [3H]LSD from human recombinant 5-HT7 receptor at 10^-6 M after 120 mins by scintillation counting analysis relative to control.
Data set [24] addresses T2, 5-hydroxytryptamine receptor 6. The data set is described as follows: Antagonist activity at human 5-HT6R expressed in CHO-K1 cells assessed as inhibition of serotonin-induced cAMP accumulation after 30 mins by chemiluminescence-based assay. In kind it is functional, cell-based.
Data set [25] concerns the target D(3) dopamine receptor (Homo sapiens) (UniProt P35462). In words: Antagonist activity at human D3R expressed in CHO-K1 cells assessed as inhibition of dopamine induced cAMP accumulation at 10^-6 M after 30 mins by HTRF method. In kind it is functional, cell-based.
Data set [26] addresses D(2) dopamine receptor (Homo sapiens) (UniProt P14416). The data set is described as follows: Antagonist activity at human D2LR expressed in CHO-K1 cells assessed as inhibition of dopamine-induced calcium flux by fluorimetric method. In kind it is functional, cell-based.
The target in data set [27] is T4, 5-hydroxytryptamine receptor 2A. The data set is described as follows: Antagonist activity at human 5-HT2AR expressed in HEK293 cells assessed as inhibition of serotonin-induced calcium flux at 10^-6 M after 30 mins by HTRF method. In kind it is functional, cell-based.
The target is the same in data set [28]. In words: Antagonist activity at human 5-HT2AR expressed in HEK293 cells assessed as inhibition of serotonin-induced calcium flux after 30 mins by HTRF method. In kind it is functional, cell-based.
Data set [29] concerns the target D(3) dopamine receptor (Homo sapiens) (UniProt P35462). In words: Antagonist activity at human D3R expressed in CHO-K1 cells assessed as inhibition of dopamine induced cAMP accumulation after 30 mins by HTRF method. In kind it is functional, cell-based.

Molecules are shown by their SMILES. pEC50, pKi: −log10 of the molar value.

A word on the inhibition: it is the percentage by which the read-out fell short of the control. As a reminder, the pKi is the negative decadic logarithm of the Ki, by convention in mol/L. The term pEC50 denotes −log10 of the EC50, conventionally taken in molar units. Broadly, the Tmax is the time from dosing to the highest level.

T4 sequence (P28223 whole entry): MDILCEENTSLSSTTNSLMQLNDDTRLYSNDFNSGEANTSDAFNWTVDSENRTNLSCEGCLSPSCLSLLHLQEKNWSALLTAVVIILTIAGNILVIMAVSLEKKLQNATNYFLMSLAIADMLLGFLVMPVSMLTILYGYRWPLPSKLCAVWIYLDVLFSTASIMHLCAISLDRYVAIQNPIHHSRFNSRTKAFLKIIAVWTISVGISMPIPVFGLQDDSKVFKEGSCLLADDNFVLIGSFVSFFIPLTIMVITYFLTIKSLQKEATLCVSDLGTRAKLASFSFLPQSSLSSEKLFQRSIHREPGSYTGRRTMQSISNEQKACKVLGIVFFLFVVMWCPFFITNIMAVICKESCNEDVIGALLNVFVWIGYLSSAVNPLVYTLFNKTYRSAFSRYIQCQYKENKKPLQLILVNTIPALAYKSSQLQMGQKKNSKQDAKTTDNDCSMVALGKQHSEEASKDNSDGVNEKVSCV
D(2) dopamine receptor (Homo sapiens), sequence (P14416 whole entry): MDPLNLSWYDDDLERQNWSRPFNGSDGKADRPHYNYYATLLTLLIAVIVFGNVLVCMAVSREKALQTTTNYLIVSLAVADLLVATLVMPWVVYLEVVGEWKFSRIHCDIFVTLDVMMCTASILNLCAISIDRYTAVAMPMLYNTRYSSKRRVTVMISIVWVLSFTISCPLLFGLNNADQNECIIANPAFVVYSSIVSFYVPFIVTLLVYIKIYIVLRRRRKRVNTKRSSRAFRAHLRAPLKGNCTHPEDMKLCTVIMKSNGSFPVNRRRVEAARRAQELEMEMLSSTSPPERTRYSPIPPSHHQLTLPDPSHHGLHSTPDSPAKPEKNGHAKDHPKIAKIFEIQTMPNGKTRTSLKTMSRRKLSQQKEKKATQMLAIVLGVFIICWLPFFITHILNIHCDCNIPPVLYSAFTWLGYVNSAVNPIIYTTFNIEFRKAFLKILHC
D(3) dopamine receptor (Homo sapiens), sequence (P35462 whole entry): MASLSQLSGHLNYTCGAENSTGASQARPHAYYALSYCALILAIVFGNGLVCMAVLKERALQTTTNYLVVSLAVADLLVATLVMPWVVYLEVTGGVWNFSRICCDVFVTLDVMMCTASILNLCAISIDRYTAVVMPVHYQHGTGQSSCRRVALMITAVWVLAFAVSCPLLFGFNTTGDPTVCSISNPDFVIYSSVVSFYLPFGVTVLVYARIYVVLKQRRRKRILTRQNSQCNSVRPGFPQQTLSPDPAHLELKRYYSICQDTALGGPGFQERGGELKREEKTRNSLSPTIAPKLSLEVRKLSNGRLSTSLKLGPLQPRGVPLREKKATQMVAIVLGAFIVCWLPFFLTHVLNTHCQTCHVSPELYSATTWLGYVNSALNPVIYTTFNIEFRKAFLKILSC
T3 sequence (P34969 whole entry): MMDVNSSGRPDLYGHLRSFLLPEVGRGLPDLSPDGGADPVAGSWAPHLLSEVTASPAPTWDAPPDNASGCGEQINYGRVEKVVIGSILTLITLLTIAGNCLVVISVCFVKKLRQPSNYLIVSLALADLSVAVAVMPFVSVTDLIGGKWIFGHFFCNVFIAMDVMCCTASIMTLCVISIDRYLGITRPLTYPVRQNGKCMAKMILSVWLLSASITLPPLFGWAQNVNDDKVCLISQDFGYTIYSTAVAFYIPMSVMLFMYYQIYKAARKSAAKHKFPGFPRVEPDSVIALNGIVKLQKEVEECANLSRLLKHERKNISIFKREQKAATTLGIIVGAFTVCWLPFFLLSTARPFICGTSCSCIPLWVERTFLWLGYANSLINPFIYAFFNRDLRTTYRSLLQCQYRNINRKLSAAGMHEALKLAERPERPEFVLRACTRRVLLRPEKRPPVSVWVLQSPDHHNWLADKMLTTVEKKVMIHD
5-hydroxytryptamine receptor 2C (Homo sapiens), sequence (P28335 whole entry): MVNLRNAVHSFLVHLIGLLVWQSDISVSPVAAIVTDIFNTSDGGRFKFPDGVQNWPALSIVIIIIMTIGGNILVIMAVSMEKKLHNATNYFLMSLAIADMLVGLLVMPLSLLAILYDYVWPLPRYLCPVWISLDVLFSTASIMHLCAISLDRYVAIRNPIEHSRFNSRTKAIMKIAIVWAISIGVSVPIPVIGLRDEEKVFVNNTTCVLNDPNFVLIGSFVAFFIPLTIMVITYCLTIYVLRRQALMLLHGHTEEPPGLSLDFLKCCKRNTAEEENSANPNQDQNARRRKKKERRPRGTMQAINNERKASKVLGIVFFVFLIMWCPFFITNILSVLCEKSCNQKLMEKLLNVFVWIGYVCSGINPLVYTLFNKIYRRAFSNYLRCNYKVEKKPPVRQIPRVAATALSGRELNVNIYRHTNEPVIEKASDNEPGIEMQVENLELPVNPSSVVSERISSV
T2 sequence (P50406 whole entry): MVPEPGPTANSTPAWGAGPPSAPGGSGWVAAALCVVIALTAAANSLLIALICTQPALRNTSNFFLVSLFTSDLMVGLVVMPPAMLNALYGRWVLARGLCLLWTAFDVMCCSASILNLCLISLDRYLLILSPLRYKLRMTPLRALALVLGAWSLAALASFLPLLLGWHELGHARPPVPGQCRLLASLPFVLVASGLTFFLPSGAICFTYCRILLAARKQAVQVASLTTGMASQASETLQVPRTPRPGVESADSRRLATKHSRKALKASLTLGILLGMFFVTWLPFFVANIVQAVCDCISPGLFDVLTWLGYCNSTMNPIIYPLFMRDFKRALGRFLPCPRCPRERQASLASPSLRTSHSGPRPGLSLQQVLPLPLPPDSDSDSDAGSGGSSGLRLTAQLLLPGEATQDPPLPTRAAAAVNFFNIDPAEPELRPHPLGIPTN
D(1A) dopamine receptor (Homo sapiens), sequence (P21728 whole entry): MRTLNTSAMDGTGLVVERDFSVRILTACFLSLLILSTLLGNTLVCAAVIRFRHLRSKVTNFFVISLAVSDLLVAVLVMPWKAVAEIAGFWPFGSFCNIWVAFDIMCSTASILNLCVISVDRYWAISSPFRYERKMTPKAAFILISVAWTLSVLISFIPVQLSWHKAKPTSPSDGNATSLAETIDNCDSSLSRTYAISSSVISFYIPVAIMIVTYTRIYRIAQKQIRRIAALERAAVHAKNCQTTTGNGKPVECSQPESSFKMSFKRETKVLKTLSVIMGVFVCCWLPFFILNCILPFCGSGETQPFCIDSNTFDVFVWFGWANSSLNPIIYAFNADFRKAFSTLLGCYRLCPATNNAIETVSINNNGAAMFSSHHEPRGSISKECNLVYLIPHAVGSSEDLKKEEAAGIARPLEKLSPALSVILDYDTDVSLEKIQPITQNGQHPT
Muscarinic acetylcholine receptor M1 (Homo sapiens), sequence (P11229 whole entry): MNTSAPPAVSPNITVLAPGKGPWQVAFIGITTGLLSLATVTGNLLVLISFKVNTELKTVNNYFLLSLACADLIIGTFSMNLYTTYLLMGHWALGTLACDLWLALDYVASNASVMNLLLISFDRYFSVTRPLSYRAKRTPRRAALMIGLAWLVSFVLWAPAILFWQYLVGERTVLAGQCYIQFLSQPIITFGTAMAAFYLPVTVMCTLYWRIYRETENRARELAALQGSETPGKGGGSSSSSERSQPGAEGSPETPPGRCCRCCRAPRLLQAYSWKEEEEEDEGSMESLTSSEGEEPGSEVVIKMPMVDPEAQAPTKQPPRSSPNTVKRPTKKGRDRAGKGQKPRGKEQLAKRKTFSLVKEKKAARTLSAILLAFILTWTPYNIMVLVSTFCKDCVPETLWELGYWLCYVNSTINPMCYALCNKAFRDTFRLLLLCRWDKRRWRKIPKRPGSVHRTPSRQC
Sodium-dependent dopamine transporter (Homo sapiens), sequence (Q01959 whole entry): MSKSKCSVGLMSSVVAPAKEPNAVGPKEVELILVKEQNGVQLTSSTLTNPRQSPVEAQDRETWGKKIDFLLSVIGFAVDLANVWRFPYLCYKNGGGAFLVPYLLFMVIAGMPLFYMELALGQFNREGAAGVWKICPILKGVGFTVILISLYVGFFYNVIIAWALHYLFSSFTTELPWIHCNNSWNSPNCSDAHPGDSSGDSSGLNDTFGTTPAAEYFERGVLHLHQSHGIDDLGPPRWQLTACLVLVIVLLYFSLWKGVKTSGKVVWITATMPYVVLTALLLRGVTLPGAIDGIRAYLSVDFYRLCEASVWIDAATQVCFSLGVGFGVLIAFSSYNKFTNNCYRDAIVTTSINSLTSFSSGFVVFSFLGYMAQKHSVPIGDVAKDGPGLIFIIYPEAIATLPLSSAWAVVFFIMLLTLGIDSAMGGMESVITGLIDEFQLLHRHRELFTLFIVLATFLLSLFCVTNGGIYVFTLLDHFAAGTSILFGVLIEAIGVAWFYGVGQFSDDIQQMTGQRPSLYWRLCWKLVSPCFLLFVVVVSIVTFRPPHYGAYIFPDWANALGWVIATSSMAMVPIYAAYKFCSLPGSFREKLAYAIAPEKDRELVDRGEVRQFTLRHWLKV
5-hydroxytryptamine receptor 2B (Homo sapiens), sequence (P41595 whole entry): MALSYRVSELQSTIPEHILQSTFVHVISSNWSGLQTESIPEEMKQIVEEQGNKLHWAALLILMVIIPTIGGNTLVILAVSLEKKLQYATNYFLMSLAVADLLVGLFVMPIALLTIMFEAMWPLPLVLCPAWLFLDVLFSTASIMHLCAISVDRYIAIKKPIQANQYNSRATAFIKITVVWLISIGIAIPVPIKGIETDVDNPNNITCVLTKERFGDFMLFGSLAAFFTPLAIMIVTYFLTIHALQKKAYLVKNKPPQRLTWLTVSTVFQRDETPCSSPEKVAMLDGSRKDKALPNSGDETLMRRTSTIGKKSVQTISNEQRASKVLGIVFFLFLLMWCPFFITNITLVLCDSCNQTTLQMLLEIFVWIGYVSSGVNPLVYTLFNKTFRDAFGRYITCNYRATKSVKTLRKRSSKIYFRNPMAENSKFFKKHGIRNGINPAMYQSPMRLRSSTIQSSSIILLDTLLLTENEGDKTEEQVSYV

As to `O=S(=O)(c1cncc2ccccc12)N1CCC[C@H]1CCN1CCN(c2cccc3sccc23)CC1`, the inhibition in data set [1] came to 98%; in [3], 23%; in [4], 100%; in data set [5], 100%; in [7], 94%; in data set [10], 19%. Further, the inhibition in [12] is 6%; in [13] it was 84%; in data set [14], 15%; in data set [16] it was 80%; in data set [17] it was 32.5%; in data set [20] it was 96%. In addition, the results for the inhibition in [21] and in data set [23] were 10% and 100%, respectively. The Kb is 28.3 nM in data set [2]; 35.6 nM in data set [6]; 24 nM in [15]; 3 nM in data set [19]; 2.3 nM in [22]. Besides, in [8], the Activity entry is given as “Non-Toxic”. Also, the pKi in data set [9] is 8.05. Also, in data set [11], the pEC50 was 7.55. The Tmax in data set [18] is 10 min.

Regarding `O=S(=O)(c1cncc2ccccc12)N1CCC[C@H]1CCN1CCN(c2nsc3ccccc23)CC1`, the Kb came out at 974 nM in data set [24], 0.42 nM in [26], 2 nM in data set [28] and 8.6 nM in data set [29]. The inhibition in [25] and in data set [27] was 100% throughout.
